What was measured:
[1] = tested on: CD8+ P1CTL T cells; assay: Proliferation and differentiation of P1A-specific P1CTL CD8+ T cells; type: in vivo, mouse
Procedure: CD8^+ P1A-specific, T cells were prepared from meshed cell suspensions of TCR transgenic lymph nodes and spleen by depleting B220, CD4, F4/80 and MHC class II-expressing cells using sheep anti-rat IgG Dynabeads®. For CFSE labeling (Molecular Probes), the cells at 10^7/ml in PBS were incubated with 5 μM CFSE for 10 min at 37° C. The reaction was stopped by washing three times with PBS.
2×10^7 irradiated J558-Ld^− cells, were injected i.v. or s.c. into Balb/c mice with or without α-Gal Cer as a DC maturation stimulus. In some experiments we compared α-Gal Cer to agonistic anti-CD40 mAb (1C10, 25 μg i.p.) or the toll like receptor ligands, poly IC ([…], Invivogen) or lipopolysaccharide (20 μgm, Sigma). The mice had been given CFSE-labeled PICTL CD8^+ T cells i.v. 1 d earlier, or were naive animals. In some experiments, mice were sacrificed 3 d later, and T cell division and activation in spleen were analyzed by flow cytometry. Additionally, 7 d or 2 months later, 5×10^6 live J558 tumor cells were inoculated subcutaneously. 5×10^6 Meth A fibrosarcoma was used as a control tumor for challenge. Tumor cell growth was measured with calipers every other day. Mice were scored positive for tumor as soon as tumors became palpable and grew progressively. Mice were euthanized when tumor size exceeded 400 mm^2.
T-cell division, phagocytosis of CFSE-labeled tumor cells and acquisition of cell surface-activation markers were determined by flow cytometry. Briefly, spleens were harvested and low-density splenocytes were stained with CD11c-APC and CD8α-PE, CD11b-PE, B220-PE or CD4-PE for the up-take examination. For in vivo proliferation of P1CTL T-cells, spleens were harvested and the splenocytes suspension was staining with CD8α-Cy, Vα8α-PE, CD25-PE, CD62L-PE. For intracellular cytokine staining, splenocytes were stimulated in vitro with 1 µg/ml P1A peptide in 5 μg/ml brefeldin A (Sigma-Aldrich) at 37° C. for 4 hrs. The cells were first stained with CD8α-Cy-Chrome™, fixed and permeabilized with cytofix-cytoperm buffer (BD Biosciences), and stained with PE conjugated mAbs to IL-2 or IFN-γ.

[2] = tested on: A20 tumor cells; assay: Tumor protection assay, A20; type: in vivo, mouse; conditions: A20 challenge s.c.
Procedure: Mice were also injected i.v. with PBS, 2 μg α-Gal Cer, 5×10^6 irradiated A20 cells with or without 2 μg α-Gal Cer i.v. Two weeks later, mice were challenged with a lethal tumorogenic dose of 5×10^6 live A20 s.c. The mice were monitored every other day for tumor growth and were scored positive when the tumors were palpable.

Compound: CCCCCCCCCCCCCCCCCCCCCCCCCC(=O)N[C@@H](CO[C@H]1O[C@H](CO)[C@H](O)[C@H](O)[C@H]1O)[C@H](O)[C@H](O)CCCCCCCCCCCCCC [α-GalCer, 2S,3S,4R-1-O(α-galactopyranosyl)-2(N-hexacosanoylamino)-1,3,4-octadecanetriol]
- stimulation of naïve CD8+ P1CTL T cells in culture by isolated DCs ([1]; DCs from mice given dying J558 with α-Gal Cer): much more effective at stimulating proliferation of naïve CD8^+ T cells in culture
- P1CTL proliferation in vivo after DC transfer ([1]; DCs isolated 4 hours after immunization, 3 days): P1CTL proliferation was detected only in response to DCs from mice given tumor with α-Gal Cer
- IFN-γ and IL-2 production on restimulation with P1A peptide ([1]; T cells stimulated in vivo in presence of α-Gal Cer): significantly more IFN-γ and IL-2
- P1CTL T cell proliferation in vivo ([1]; irradiated J558− plus α-Gal Cer vs J558− alone, 3 days): proliferated more extensively
- tumor outcome after combined vaccination ([2]; irradiated A20 cells and α-Gal Cer i.v.): protected and remained tumor-free
- tumor outcome after glycolipid alone ([2]; α-Gal Cer pretreatment alone): development of palpable tumors

Reference: patent US20090117089A1, “GLYCOLIPIDS AND ANALOGUES THEREOF AS ANTIGENS FOR NK T CELLS” (The Rockefeller University, priority 2005, published 2009)
